For 7 molecules, change in vivo, melting point and IC50 results are on record in patent publication US8642653B2, “Ketone compounds and compositions for cholesterol management and related uses” (Esperion Therapeutics, Inc., priority 2003, dated 2014).

Read-outs that look alike come from different tables or passages of the source.

For one series, the system named is obese female Zucker rats. Put plainly: Daily oral gavage in obese female Zucker rats: serum nonHDL cholesterol, HDL cholesterol, triglycerides, glycemic control indicators, body weight. Format: in vivo, rat (Zucker fatty Crl:(Zuc)-faBR). Conditions: Rattus norvegicus, 100 mg/kg daily oral gavage. How it is done:
Ten- to twelve-week old (400-500 grams) female Zucker fatty rats Crl: (Zuc)-faBR were obtained from Charles River Laboratories. Animals were acclimated to the laboratory environment for seven days. During the acclimation and study period, animals were housed by group in shoebox polycarbonate cages on Cellu-Dri bedding. The temperature and humidity in the animals' quarters (68-78° F.; 30-75% RH) were monitored and the airflow in the room was sufficient to provide several exchanges per hour with 100% fresh filtered air. An automatic timing device provided an alternating 12-hour cycle of light and dark. Rats received pelleted Purina Laboratory Rodent Chow® (5001) prior to and during the drug intervention period except for a 6-hour phase prior to blood sampling. Fresh water was supplied ad libitum via an automatic watering system. Compounds were dissolved, suspended by mixing in a dosing vehicle consisting of 1.5% carboxymethylcellulose/0.2% Tween 20 or 20% ethanol and 80% polyethylene glycol-200 [v/v]. Dose volume of vehicle or vehicle plus each compound was set at 0.25% of body weight in order to deliver the appropriate dose. Doses were administered daily by oral gavage, approximately between 8-10 AM. Regarding blood sampling, animals were fasted for 6 hours prior to all blood collections. Prior to and after 7 days of dosing, a 1.0- to 2.0-mL sample of blood was collected by administering O2/CO2 anesthesia and bleeding from the orbital venous plexus. Following 14 days of dosing, blood was collected by cardiac puncture after euthanasia with CO2. All blood samples were processed for separation of serum and stored at −80° C. until analysis. Commercially available kits were used to determine serum triglycerides (Roche Diagnostic Corporation, Kit No. 148899 or Boehringer Mannheim, Kit No. 1488872), total cholesterol (Roche Diagnostic Corporation, Kit No. 450061), non-esterified fatty acids (Wako Chemicals, Kit No. 994-75409) and β-hydroxybutyrate (Wako Chemicals, Kit No. 417-73501 or Sigma Kit. No. 310-0) on a Hitachi 912 Automatic Analyzer (Roche Diagnostic Corporation). In some instances, an in-house cholesterol reagent was used to determine total serum cholesterol levels. Serum lipoprotein cholesterol levels were determined by lipoprotein profile analysis. Lipoprotein profiles were analyzed using gel-filtration chromatography on a Superose 6HR (1×30 cm) column equipped with on-line detection of total cholesterol as described by Kieft et al (Kieft, K. A.; Bocan, T. M.; Krause, B. R. Rapid on-line determination of cholesterol distribution among plasma lipoproteins after high-performance gel filtration chromatography. J. Lipid Res. 1991, 32, 859-866.). The total cholesterol content of each lipoprotein was calculated by multiplying the independent values determined for serum total cholesterol by the percent area of each lipoprotein in the profile. The percent body weight gain and the ratio of liver to body weight is also determined. Selected data are shown as absolute values or as a percent change of the pretreatment values in Tables 8 and 9.
Select compounds (214c, 210c, and 210g) were further evaluated in the Zucker rat by performing a full dose response and measuring additional serum variables including markers for diabetes (Tables 10-12).

Series [1] relates to Lipid Synthesis in Primary Rat Hepatocytes. The series can be described thus: Inhibition of lipid synthesis ([1-14C]-acetate incorporation) in primary cultures of rat hepatocytes. Particulars: Hepatocyte, 4 h, 4 h incubation with [1-14C]-acetate, 0-300 μM compound, Table 7, ranges where confidence of estimate is insufficient to assign a value. Format: cell-based, rat (Sprague-Dawley). How it is done:
Compounds were tested for inhibition of lipid synthesis in primary cultures of rat hepatocytes. […] Sprague-Dawley rats were anesthetized with intraperitoneal injection of sodium pentobarbital (80 mg/kg). Rat hepatocytes were isolated essentially as described by the method of Seglen (Seglen, P. O. Hepatocyte suspensions and cultures as tools in experimental carcinogenesis. J. Toxicol. Environ. Health 1979, 5, 551-560). Hepatocytes were suspended in Dulbecco's Modified Eagles Medium containing 25 mM D-glucose, 14 mM HEPES, 5 mM L-glutamine, 5 mM leucine, 5 mM alanine, 10 mM lactate, 1 mM pyruvate, 0.2% bovine serum albumin, 17.4 mM non-essential amino acids, 20% fetal bovine serum, 100 nM insulin and 20 μg/mL gentamycin) and plated at a density of 1.5×10^5 cells/cm^2 on collagen-coated 96-well plates. Four hours after plating, media was replaced with the same media without serum. […] Lipid synthesis incubation conditions were initially assessed to ensure the linearity of [1-^14C]-acetate incorporation into hepatocyte lipids for up to 4 hours. Hepatocyte lipid synthesis inhibitory activity was assessed during incubations in the presence of 0.25 μCi [1-^14C]-acetate/well (final radiospecific activity in assay is 1 Ci/mol) and 0, 1, 3, 10, 30, 100 or 300 μM of compounds for 4 hours. […] Lipid radioactivity was assessed by scintillation spectroscopy in a Packard TopCount NXT.

Setting [2] is: 168 h, 1 wk, Table 9, read-out: HDL-Cholesterol, Percent Change from Pre-Treatment, 1 wk.

`CC(C)(CCCCCC(=O)CCCCCC(C)(C)C(=O)O)C(=O)O`: in the series on obese female Zucker rats (setting [2]), the change in vivo at 100 mg/kg was determined as 70%.
Take `O=C(CCCCC1(C(=O)O)CCCC1)CCCCC1(C(=O)O)CCCC1` [Compound 107g, 1-[9-(1-Carboxycyclopentyl)-5-oxononyl]-1-cyclopentanecarboxylic acid]: the melting point was 99 to 103 °C.
Same read-out and setting: the figure for `O=C(CCCCCC1(C(=O)O)CC1)CCCCCC1(C(=O)O)CC1` [Compound 107l, 1-[11-(1-Carboxycyclopropyl)-6-oxoundecyl]-1-cyclopropanecarboxylic acid] is 122 to 123 °C.
Regarding `O=C(CCCCCC1(C(=O)O)CCCC1)CCCCCC1(C(=O)O)CCCC1` [Compound 107m, 1-[11-(1-Carboxycyclopentyl)-6-oxoundecyl]-1-cyclopentanecarboxylic acid], the melting point lay in the range of 78 to 85 °C.
`CC(C)(CCCCCCCC(=O)CCCCCCCC(C)(C)C(=O)O)C(=O)O` [Compound 107n, 10-Oxo-2,2,18,18-tetramethyl-nonadecanedioic acid]: the melting point lay in the range of 74 to 77 °C.
In the case of `CC(C)(CCCCCCCC(=O)CCCCCCCC(C)(C)C(=O)O)C(=O)O` [drawing 538], the IC50 in series [1] is 5 µM.
For the molecule `CC(C)(CCCCCCCC(=O)CCCCCCCC(C)(C)C(=O)O)C(=O)O` [drawing 559], the change in vivo at 100 mg/kg was 44% in the series on obese female Zucker rats (setting [2]); -80% with obese female Zucker rats (168 h, 1 wk, Table 9, read-out: NonHDL-Cholesterol, Percent Change from Pre-Treatment, 1 wk); -85% in the series with obese female Zucker rats (168 h, 1 wk, Table 9, read-out: TG, Percent Change from Pre-Treatment, 1 wk); 86% with obese female Zucker rats (336 h, 2 wk, Table 9, read-out: HDL-Cholesterol, Percent Change from Pre-Treatment, 2 wk); -46% with obese female Zucker rats (336 h, 2 wk, Table 9, read-out: NonHDL-Cholesterol, Percent Change from Pre-Treatment, 2 wk); -63% in the series with obese female Zucker rats (336 h, 2 wk, Table 9, read-out: TG, Percent Change from Pre-Treatment, 2 wk).

A word on the melting point: it is the temperature, or range, at which the solid turns liquid. As usually defined, the IC50 is the midpoint of a concentration-inhibition curve.
